“And” between values parts separate entries of the source, which are not always exact repeats. Equal entries are not always repeated. Where two headings read alike, the source gives them in different places. Marks after values point to notes of the source that are not given here.
Experiments:
[1] = cynomolgus monkey, in vivo, 15 mg/kg
Protocol: (§1) Four male cynomolgus monkeys were used in the study. […] The dosing volume was 10 mL/kg. Blood samples (2 mL per sample) were obtained prior to dosing (0 hr) and at 0.5, 1, 2, 4, 6, 8, 12, 24, 32 and 48 hr after the oral dose. […] Blood samples (2 mL) were obtained pre-dose (0 hr) and at 5 mm., 0.5, 1, 2, 4, 6, 8, 12, 24, 32 and 48 hr post-dose. Blood samples were collected using a stainless steel needle and vacutainer tube containing sodium heparin as the anticoagulant. Blood samples were placed on ice after collection and centrifuged at approximately 4° C. Plasma samples was separated, frozen and stored at approximately −70° C. prior to analysis.
(§2) Pharmacokinetic parameters were calculated using the pharmacokinetics analysis program WinNonlin, version 2.1 (Scientific Consulting Inc.) from the individual animal concentration vs. time profiles. […] For the purpose of this analysis, no attempt was made to back extrapolate the concentration immediately after the IV bolus dose, rather the concentration at 0 hr (C0, immediately after dosing) was assumed to be equal to the first measured concentration (at 5 minutes, C5min). […] The terminal half-life (t1/2) was determined by 0.693/λ, where λ is the terminal rate constant and is determined by a log-linear fitting of the terminal portion of the concentration-time curve. AUC0-4 was calculated by AUC0-t+Ct/λ, where AUC0-t was the AUC from time 0 to t, the last quantifiable time point and Ct was the last quantifiable concentration. The area under the plasma concentration-time curve from time 0 to t (AUC0-t) was calculated using the linear trapezoidal method. Systemic clearance (CLT) after the iv dose was calculated using the formula of Dose/AUC0-4. The volume of distribution at steady-state (Vdss) was calculated using the formula of MRTiv×CLT, where MRTiv is the mean residence time after iv dosing and equals AUMC0-4/AUC0-4. For the oral dose, Cmax and tmax values were obtained by inspection of the concentration vs. time curves.

[2] = Pharmacokinetics of tigecycline after single oral (gavage) and intravenous dose in 0.9% saline
Protocol: as §1, §2

cell monolayer = settings: pH 6

## Tigecycline
[1]
  AUC0-t or 0-∞: 18267
[1]; po
  AUC0-t or 0-∞: 163
[2]; 5 mg/kg iv, animals 1-4 and Mean
  AUC0-4: 20178 ng·h/mL
[2]; 15 mg/kg oral (gavage), 0.9% saline, animals 1-4 and Mean
  Cmax: 131 ng/mL and 191 ng/mL and 178 ng/mL
[2]; 15 mg/kg oral (gavage), t = 2 hr (animals 1, 2, 4) or t = 1 hr (animal 3), individual and Mean
  AUC0-t: 105^c ng · hr/mL
Cell monolayer
  cell monolayer permeability: 0.04 ×10⁻⁶ cm/s

— patent US20080014256A1 (priority 2005, published 2008)
